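96-well plates; 48 h exposure; 5 concentrations. Endpoints by linear interpolation between flanking doses. Not reached: highest tested concentration assigned. The concentration for 50% growth inhibition is given as GI50. TGI is the concentration that stops growth completely.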

These results are taken from PubChem BioAssay (NCI).

Test systems include 786-0 renal; HOP-62 NSCLC; IGROV1 ovarian; M14 melanoma; RXF 393 renal; SF-295 CNS; SNB-75 CNS; UO-31 renal.
Holding throughout (assay): inhibition of tumour cell growth, NCI panel, 48 h

As for `CC(=O)OC1=CC2=CC[C@H]3[C@@H]4CCC(=O)[C@@]4(C)CC(=O)[C@]3(S)[C@@]2(C)CC1`, the TGI is 87 µM in the test on 786-0 renal; more than 100 µM in the test with HOP-62 NSCLC; more than 100 µM in the test on IGROV1 ovarian; more than 100 µM in the test on M14 melanoma; 39.7 µM with RXF 393 renal; more than 100 µM in the test with SF-295 CNS. The TGI in the test on SNB-75 CNS and in the test on UO-31 renal was more than 100 µM each time.

In the case of `Cn1nc(-c2ccc(Cl)cc2)nc2c(=O)n(C)c(=O)nc1-2`, the GI50 in the test on 786-0 renal is 1.43 µM; with HOP-62 NSCLC, 0.886 µM; in the test with IGROV1 ovarian, 0.842 µM; in the test on M14 melanoma it was 0.75 µM; with RXF 393 renal it was 0.781 µM; in the test with SF-295 CNS, 0.777 µM. The GI50 is 2.38 µM in the test on SNB-75 CNS and 1.53 µM in the test on UO-31 renal. For the same compound, the TGI came out at 9.65 µM in the test on 786-0 renal; 1.75 µM with HOP-62 NSCLC; 3.67 µM with IGROV1 ovarian; 1.41 µM with M14 melanoma; 1.57 µM in the test on RXF 393 renal; 1.81 µM in the test with SF-295 CNS. In addition, the TGI in the test on SNB-75 CNS is 4.68 µM; with UO-31 renal, 6.56 µM.

With `O=C(O)c1cn(C2CC2)c2cc(N3CCN(C(=O)Nc4nc(-c5ccccc5)cs4)CC3)c(F)cc2c1=O`, the GI50 with 786-0 renal is 0.592 µM; in the test with HOP-62 NSCLC, 2.67 µM; with IGROV1 ovarian, 1.2 µM; in the test on M14 melanoma it was 2.06 µM; in the test with RXF 393 renal it was 1.53 µM; in the test on SF-295 CNS it was 2.13 µM. The GI50 in the test on SNB-75 CNS was 1.22 µM; in the test with UO-31 renal, 0.876 µM. Further, the TGI was 16.9 µM with 786-0 renal; 82.4 µM in the test on HOP-62 NSCLC; more than 100 µM in the test with IGROV1 ovarian; more than 100 µM in the test on M14 melanoma; 26.3 µM with RXF 393 renal; 9.24 µM in the test on SF-295 CNS. Also, the TGI with SNB-75 CNS was 19.4 µM; in the test on UO-31 renal, more than 100 µM.

On to `Cc1cc2cc3ccc(N(C)C)cc3nc2cc1N`, for which the GI50 was 0.597 µM in the test on 786-0 renal; 0.481 µM in the test on HOP-62 NSCLC; 0.528 µM in the test on IGROV1 ovarian; 0.682 µM in the test with M14 melanoma; 0.41 µM in the test on RXF 393 renal; 0.273 µM with SF-295 CNS. For the same compound, the GI50 in the test on SNB-75 CNS is 1.04 µM; in the test on UO-31 renal, 0.642 µM. The TGI in the test on 786-0 renal worked out at 2.47 µM; in the test on HOP-62 NSCLC, 2.45 µM; in the test with IGROV1 ovarian, 2.9 µM; with M14 melanoma, 2.14 µM; in the test on RXF 393 renal it was 1.34 µM; in the test on SF-295 CNS it was 2.03 µM. Besides, the TGI came to 2.3 µM in the test on SNB-75 CNS and 5.01 µM in the test with UO-31 renal.

On to `CCN1C(=O)CCCc2c1ccc(Nc1ncc(Cl)c(NC3[C@@H](C(N)=O)[C@@H]4C=C[C@H]3C4)n1)c2OC` (some centres undefined), for which the GI50 is 1.87 µM in the test on 786-0 renal; 2.1 µM in the test with HOP-62 NSCLC; 1.46 µM in the test on IGROV1 ovarian; 0.77 µM in the test on M14 melanoma; 1.22 µM in the test on RXF 393 renal; 1.45 µM in the test on SF-295 CNS. The figures for the GI50 in the test with SNB-75 CNS and in the test on UO-31 renal were 0.619 µM and 0.809 µM, respectively. In addition, the TGI amounted to 9.12 µM in the test with 786-0 renal; 13.7 µM with HOP-62 NSCLC; 3.96 µM with IGROV1 ovarian; 2.32 µM with M14 melanoma; 3.38 µM in the test with RXF 393 renal; 13.3 µM in the test on SF-295 CNS. Further, the values for the TGI in the test on SNB-75 CNS and in the test on UO-31 renal were 6.23 µM and 4.07 µM, respectively.

As to `COc1ccccc1C1=C(Nc2ccccc2)C(=O)NC1=O`, the GI50 in the test with 786-0 renal was more than 25 µM; in the test on HOP-62 NSCLC it was more than 25 µM; in the test with IGROV1 ovarian it was more than 25 µM; with M14 melanoma, more than 25 µM; in the test on RXF 393 renal it was 7.87 µM; in the test with SF-295 CNS it was more than 25 µM. The GI50 was more than 18.1 µM in the test on SNB-75 CNS and more than 25 µM in the test on UO-31 renal. In addition, the TGI in the test with 786-0 renal, in the test with HOP-62 NSCLC, in the test on IGROV1 ovarian, in the test on M14 melanoma, in the test with RXF 393 renal and with SF-295 CNS was more than 25 µM each time. For the same compound, the TGI with SNB-75 CNS and in the test with UO-31 renal was more than 25 µM each time.

With `COc1cccc(CSCC(=O)O)c1`, the TGI with 786-0 renal, in the test with HOP-62 NSCLC, in the test with IGROV1 ovarian, in the test with M14 melanoma, in the test with RXF 393 renal and with SF-295 CNS was more than 100 µM in each case. The TGI in the test on SNB-75 CNS and in the test on UO-31 renal was more than 100 µM in each case.

Take `N#Cc1c(Br)n(C2OC(CO)C(O)C2O)c2ncnc(N)c12` (centres undefined): the GI50 in the test on 786-0 renal is 6.45 µM; in the test with HOP-62 NSCLC it was 4.09 µM; with IGROV1 ovarian, 0.333 µM; in the test on M14 melanoma, 2.18 µM; with RXF 393 renal it was 0.847 µM; in the test on SF-295 CNS, 2.07 µM. The GI50 in the test with SNB-75 CNS was 3.98 µM; with UO-31 renal, 2.25 µM. Also, the TGI with 786-0 renal is more than 100 µM; in the test on HOP-62 NSCLC, more than 100 µM; with IGROV1 ovarian it was 1.76 µM; in the test on M14 melanoma it was 17.8 µM; in the test with RXF 393 renal, 6.8 µM; in the test on SF-295 CNS it was 30.7 µM. Also, the TGI came to 30.7 µM in the test with SNB-75 CNS and 59.5 µM in the test with UO-31 renal.

Regarding `S=C(Nc1ccc(N=Nc2ccccc2)cc1)SCc1ccccc1`, the TGI in the test with 786-0 renal stood at 38 µM; in the test on HOP-62 NSCLC, 41.3 µM; in the test on IGROV1 ovarian it was 32.6 µM; in the test with M14 melanoma, 37.6 µM; with RXF 393 renal it was 46.4 µM; with SF-295 CNS it was 34.4 µM. For the same compound, the TGI in the test on SNB-75 CNS stood at 44.2 µM; in the test on UO-31 renal, 34.9 µM.

As to `COc1ccc2c(c1)CC[C@@H]1[C@@H]2CC[C@]2(C)[C@@H](NC(=O)/C=C/c3ccc(O)c(O)c3)CC[C@@H]12`, the GI50 in the test with 786-0 renal is 2.34 µM; in the test on HOP-62 NSCLC, 3.03 µM; with IGROV1 ovarian it was 1.98 µM; in the test on M14 melanoma, 2.26 µM; in the test on RXF 393 renal, 7.94 µM; in the test on SF-295 CNS, 12.8 µM. In addition, the values for the GI50 in the test with SNB-75 CNS and with UO-31 renal were 21.9 µM and 1.26 µM, respectively. Further, the TGI stood at 5.48 µM in the test with 786-0 renal; 11.1 µM with HOP-62 NSCLC; 12 µM in the test with IGROV1 ovarian; 6.98 µM in the test with M14 melanoma; 46 µM in the test with RXF 393 renal; 27.1 µM in the test on SF-295 CNS. Also, the values for the TGI in the test with SNB-75 CNS and in the test with UO-31 renal were more than 100 µM and 15 µM, respectively.

For the compound `CN(COC(=O)c1ccccc1)c1nc(N(C)COC(=O)c2ccccc2)nc(N(C)COC(=O)c2ccccc2)n1`, the TGI with 786-0 renal was 46.5 µM; in the test on HOP-62 NSCLC, 40.6 µM; in the test with IGROV1 ovarian it was more than 100 µM; with M14 melanoma, more than 100 µM; in the test on RXF 393 renal, 26.2 µM; in the test with SF-295 CNS it was more than 84.9 µM. For the same compound, the TGI in the test with SNB-75 CNS and in the test on UO-31 renal was more than 100 µM in each case.
